Patent publication US20040185430A1, “Process for evaluating the cosmetic or dermatological activity of a product and use of plant material” (priority 2002, published 2004)

Assays:
Carrot [1] = assay: Moisturizing effect, CM820 corneometer, carrot model; settings: 4 mg/cm2 topical, T 2 hours vs T0, corrected for control region
Procedure: (§1) Measurements were carried out at approximately 22° C. and a relative humidity ranging from 53% to 67%. Fruits and vegetables: 2 samples per product, measured at intervals of 24 hours. Application to regions of 4 cm^2. A control region on each sample. Application of the formulations at the rate of 4 mg/cm^2 (search for the direction of the action and not for the performance of the product). Moisturizing—Measurement with a CM820 corneometer of the mean value of 5 determinations. Measurements at: T0: reference value before application of the formulations. T 2 hours for the active principles (single measurement after observation of appearance of cuts on the leaves brought about by the measuring pressure of the corneometer). T 1 hour and T 4 hours for the commercial formulations. The values are the mean of the measurements at Ti divided by those at TO corrected for the variations in the control regions.

Carrot [2] = assay: Barrier effect, insensible water loss (IWL), Dermalab, carrot model; settings: 4 mg/cm2 topical, T 2 hours vs T0, corrected for control region
Procedure: (§2) Measurements were carried out at approximately 22° C. and a relative humidity ranging from 53% to 67%. Fruits and vegetables: 2 samples per product, measured at intervals of 24 hours. Application to regions of 4 cm^2. A control region on each sample. Application of the formulations at the rate of 4 mg/cm^2 (search for the direction of the action and not for the performance of the product). The plant and human models and the products tested were the same as in Example 1. The IWL (insensible water loss) measurements were carried out according to the same protocol as above. IWL: Measurement with a Dermalab (vertical probe in contact with the measurement region, under minimum pressure). For the plants, a glass sheet was placed under the measurement region. 2 series of consecutive measurements of 25 values were conducted. The values are the mean of the measurements at Ti divided by those at T0 corrected for the variations in the control regions.

Spatyphillum [3] = assay: Moisturizing effect, CM820 corneometer, Spatyphillum leaves; settings: Spatyphillum leaf; 4 mg/cm2 topical; T 2 hours vs T0, corrected for control
Procedure: as §1, with “Plants:” for “Fruits and vegetables:”, “Application” for “Application to regions”, “the formulations over the whole of the vernicose (upper) surface. One leaf per formulation+one” for “4 cm^2. A”, “leaf. […]” for “region on each sample.”

Syngonium [4] = assay: Moisturizing effect, CM820 corneometer, Syngonium leaves; settings: Syngonium leaf; 4 mg/cm2 topical; T 2 hours vs T0, corrected for control
Procedure: as §1, with “Plants:” for “Fruits and vegetables:”, “Application” for “Application to regions”, “the formulations over the whole of the vernicose (upper) surface. One leaf per formulation+one” for “4 cm^2. A”, “leaf. […]” for “region on each sample.”

Syngonium [5] = assay: Barrier effect, insensible water loss (IWL), Dermalab, Syngonium leaves; settings: Syngonium leaf; 4 mg/cm2 topical; T 2 hours vs T0, corrected for control
Procedure: as §2, with “Plants:” for “Fruits and vegetables:”, “Application” for “Application to regions”, “the formulations over the whole of the vernicose (upper) surface. One leaf per formulation+one” for “4 cm^2. A”, “leaf. […]” for “region on each sample.”

Ficus [6] = assay: Barrier effect, insensible water loss (IWL), Dermalab, Ficus leaves; settings: Ficus leaf; 4 mg/cm2 topical; T 2 hours vs T0, corrected for control
Procedure: as §2, with “Plants:” for “Fruits and vegetables:”, “Application” for “Application to regions”, “the formulations over the whole of the vernicose (upper) surface. One leaf per formulation+one” for “4 cm^2. A”, “leaf. […]” for “region on each sample.”

Man [7] = assay: Moisturizing effect, CM820 corneometer, human model (inner forearm); format: in vivo; settings: 4 mg/cm2 topical, T 2 hours vs T0, corrected for control region
Procedure: 2) To measure the moisturizing and the barrier effects, the human models (2 male volunteers and 2 female volunteers) took part in the tests and measurements under environmental conditions which were also controlled. Measurements were carried out at approximately 22° C. and a relative humidity ranging from 53% to 67%. Human beings: 4 models per product. Application to an inner region of the arm. Three regions of measurements, including a control, on the inner part of each forearm were conducted. The models were kept calm under climate-controlled measuring conditions for 15 minutes before each series of measurements. Application of each formulation over an area of 16 cm^2. Application of the formulations at the rate of 4 mg/cm^2 (search for the direction of the action and not for the performance of the product). Moisturizing—Measurement with a CM820 corneometer of the mean value of 5 determinations. Measurements at: T0: reference value before application of the formulations. T 2 hours for the active principles (single measurement after observation of appearance of cuts on the leaves brought about by the measuring pressure of the corneometer). T 1 hour and T 4 hours for the commercial formulations. The values are the mean of the measurements at Ti divided by those at TO corrected for the variations in the control regions.

Man [8] = assay: Barrier effect, insensible water loss (IWL), Dermalab, human model (inner forearm); format: in vivo; settings: 4 mg/cm2 topical, T 2 hours vs T0, corrected for control region
Procedure: 2) To measure the moisturizing and the barrier effects, the human models (2 male volunteers and 2 female volunteers) took part in the tests and measurements under environmental conditions which were also controlled. Measurements were carried out at approximately 22° C. and a relative humidity ranging from 53% to 67%. Human beings: 4 models per product. Application to an inner region of the arm. Three regions of measurements, including a control, on the inner part of each forearm were conducted. The models were kept calm under climate-controlled measuring conditions for 15 minutes before each series of measurements. Application of each formulation over an area of 16 cm^2. Application of the formulations at the rate of 4 mg/cm^2 (search for the direction of the action and not for the performance of the product). The plant and human models and the products tested were the same as in Example 1. The IWL (insensible water loss) measurements were carried out according to the same protocol as above. IWL: Measurement with a Dermalab (vertical probe in contact with the measurement region, under minimum pressure). For the plants, a glass sheet was placed under the measurement region. 2 series of consecutive measurements of 25 values were conducted. The values are the mean of the measurements at Ti divided by those at T0 corrected for the variations in the control regions.

Ficus [9] = assay: Moisturizing effect, CM820 corneometer, Ficus leaves; settings: Ficus leaf; 4 mg/cm2 topical; T 2 hours vs T0, corrected for control
Procedure: as §1, with “Plants:” for “Fruits and vegetables:”, “Application” for “Application to regions”, “the formulations over the whole of the vernicose (upper) surface. One leaf per formulation+one” for “4 cm^2. A”, “leaf. […]” for “region on each sample.”

Spatyphillum [10] = assay: Barrier effect, insensible water loss (IWL), Dermalab, Spatyphillum leaves; settings: Spatyphillum leaf; 4 mg/cm2 topical; T 2 hours vs T0, corrected for control
Procedure: as §2, with “Plants:” for “Fruits and vegetables:”, “Application” for “Application to regions”, “the formulations over the whole of the vernicose (upper) surface. One leaf per formulation+one” for “4 cm^2. A”, “leaf. […]” for “region on each sample.”

Apples, Golden Delicious [11] = assay: Moisturizing effect, CM820 corneometer, apple model; settings: 4 mg/cm2 topical, T 2 hours vs T0, corrected for control region
Procedure: as §1

Potato, BF15 [12] = assay: Barrier effect, insensible water loss (IWL), Dermalab, potato model; settings: 4 mg/cm2 topical, T 2 hours vs T0, corrected for control region
Procedure: as §2

Potato, BF15 [13] = assay: Moisturizing effect, CM820 corneometer, potato model; settings: 4 mg/cm2 topical, T 2 hours vs T0, corrected for control region
Procedure: as §1

Apples, Golden Delicious [14] = assay: Barrier effect, insensible water loss (IWL), Dermalab, apple model; settings: 4 mg/cm2 topical, T 2 hours vs T0, corrected for control region
Procedure: as §2

Row | SMILES | Variation T 2 hours/T0 Corneo (Carrot [1]) [%] | Variation T 2 hours/T0 IWL (Carrot [2]) [%] | Variation T 2 hours/T0 Corneo (Spatyphillum [3]) [%] | Variation T 2 hours/T0 Corneo (Syngonium [4]) [%] | Variation T 2 hours/T0 IWL (Syngonium [5]) [%] | Variation T 2 hours/T0 IWL (Ficus [6]) [%] | Variation T 2 hours/T0 Corneo (Man [7]) [%] | Variation T 2 hours/T0 IWL (Man [8]) [%] | Variation T 2 hours/T0 Corneo (Ficus [9]) [%] | Variation T 2 hours/T0 IWL (Spatyphillum [10]) [%] | Variation T 2 hours/T0 Corneo (Apples, Golden Delicious [11]) [%] | Variation T 2 hours/T0 IWL (Potato, BF15 [12]) [%] | Variation T 2 hours/T0 Corneo (Potato, BF15 [13]) [%] | Variation T 2 hours/T0 IWL (Apples, Golden Delicious [14]) [%]
1 | OCC(O)CO [Glycerol] | 62 | 1 | 52 | 38 | 40 | 183 | 22 | 55 | 47 | 14 | 16 | 188 | 69 | –
2 | CCCCCCCCCCCCOP(=O)(O)O [Surfactant, Lauryl phosphate] | 271 | 2 | 30 | 48 | 104 | – | 5 | 19 | 20 | 13 | 2 | 48 | 1144 | 0
